The results in this text go back to patent US10376558B2, “Method and compositions for synchronizing time of insemination in gilts” (UNITED-AH II, LLC, priority 2012, dated 2019).

Assay [1] has as its system LH. Description: Example 5: serum LH surge after triptorelin gel (jugular blood sampling). In kind it is in vivo, swine. The settings on record: for Magnitude of LH surge: maximum serum LH concentration; for Onset of LH surge / Time of maximum LH conc.: relative to time of triptorelin gel treatment; for Time of maximum LH conc.: in h (unit assumed); for Gilts, which displayed a LH surge: number of gilts. Here is the method:
All gilts were individually fed MATRIX® as a top-dress for 14 or 15 days at the recommended rate of 15 mg/gilt/day. Gilts were withdrawn from MATRIX® feeding (last top-dress in the morning on Day 0) and allocated to each of the following treatments. Controls were vehicle gel treated (vehicle gel without triptorelin) at 120 (+/−2) hours following MATRIX® withdrawal (last top dress). The other gilts were given 100, 200 or 400 mcg triptorelin as the acetate in a methylcellulose gel formulation 120 (+/−2) hours following MATRIX® withdrawal. The four treatments were:
A catheter was inserted non-surgically into the jugular vein (Kraeling et al. 1982) of a subpopulation of gilts in each treatment group (vehicle gel, n=8; 100 mcg triptorelin, n=6; 200 mcg triptorelin, n=7 and 400 mcg triptorelin, n=6). Ten mL blood samples were collected every 15 minutes for one hour prior to treatment, immediately following treatment (0) and at 0.5, 1, 2, 4, 6, 12, 18, 24, 36 and 48 hours after treatment. Blood samples were maintained at 4° C. until centrifuged at 800×g for 15 minutes within 12 hours of collection. The resulting serum was stored frozen until assayed for LH using validated procedures for pig serum (Kesner et al., 1987 and Kraeling et al., 1982). Onset, duration, and magnitude of the LH surge were analyzed. The LH data were analyzed with the General Linear Models procedure of SAS. Differences between treatments were tested on least squares means estimates using the T test at P<0.05. Onset of the LH surge is when serum LH concentration is greater than or equal to two standard deviations of the mean of the pre-treatment serum LH concentrations. Duration of the LH surge is the period between onset and when serum LH concentration is again less than or equal to two standard deviations of the mean of the pre-treatment serum LH concentrations. Magnitude of the LH surge is the maximum serum LH concentration reached during the LH surge.
(§1) A single 2 mL dose of triptorelin gel or vehicle gel was deposited within approximately 1-2 cm posterior to the cervix with a catheter similar to those used for artificial insemination. The dose was delivered using a standard multi-dose applicator attached to the catheter. A new disposable sheath, which surrounds the catheter, was used for each gilt.

Assay [2] deals with gilts. Description: Example 1: ovulation monitoring by transrectal ultrasonography after triptorelin gel at 96, 120 or 144 h after last MATRIX feeding. The class given is in vivo, swine. The settings on record: raw average, PTK 1-07 (rep 3); for % of Sows Ovulating: 200 mcg T at 120 h. As to the method: All gilts were individually fed MATRIX® as a top-dress for 14 days at the recommended rate of 15 mg/gilt/day. Gilts were withdrawn from MATRIX® feeding (last top feed in the morning on Day 0) and allotted to treatments. Controls were treated with a 1.2% methylcellulose gel formulation without triptorelin at 96 hours following MATRIX® withdrawal (last top-dress). The remaining gilts received 200 mcg triptorelin, as the acetate, in a 1.2% methylcellulose gel formulation intravaginally at various times after MATRIX® withdrawal. The four treatments were: 1) vehicle gel (VG) treatment at 96 hours after MATRIX® withdrawal, 2) triptorelin gel (TG) treatment at 96 hours after MATRIX® withdrawal, 3) TG treatment at 120 hours after MATRIX® withdrawal and 4) TG treatment at 144 hours after MATRIX® withdrawal. All gilts were monitored for their estrous and ovulatory status as described below. Gilts included in replicate 1 were selected from terminal line commercial production gilts located in grow/finish barns. Sexual maturity, as indicated by one or more estrous periods, was not verified prior to the start of MATRIX® feeding. Gilts included in replicate 2 were selected from a maternal line gilt population. Sexual maturity was verified by at least one estrous period verified and recorded prior to starting MATRIX® feeding.
The ovulatory status of all gilts was monitored by transrectal ultrasonography. For replicate one, ovulation was monitored two times on Day 5, then three times a day from Day 6 to Day 8. For replicate two, ovulation was monitored three times a day from Day 5 to Day 8. An Aloka 500 ultrasound machine with a 7.5 MHz linear array transducer attached to a fixed-angle PVC stabilizing rod to facilitate insertion into the rectum was used for this purpose. The transducer and PVC rod were coated with a gynecological lubricant and gently inserted into the rectum until the ovaries were visualized, one at a time. The diameters of the three largest follicles were recorded (to the nearest 0.1 mm) at each scanning. A gilt was declared to have ovulated when the number of large follicles (≥6.5 mm) fell to less than 3.
as §1
Data were analyzed using the Mixed Models procedures of SAS. Models included main effects of time of treatment following the last feeding of MATRIX®, replicate, and treatment by replicate interaction. Differences between treatments were tested on least squares means estimates using the T test at P<0.05. Data for analysis were tested for assumptions of data normality.

Setting [3] is: 100 mcg T (n = 6), Least Squares Mean ± SE.
Setting [4] is: 200 mcg T (n = 7), Least Squares Mean.
[5] abbreviates: 400 mcg T (n = 6), Least Squares Mean ± SE.

SMILES strings stand for the structures.

With `CC(C)C[C@H](NC(=O)[C@@H](Cc1c[nH]c2ccccc12)NC(=O)[C@H](Cc1ccc(O)cc1)NC(=O)[C@H](CO)NC(=O)[C@H](Cc1c[nH]c2ccccc12)NC(=O)[C@H](Cc1c[nH]cn1)NC(=O)[C@@H]1CCC(=O)N1)C(=O)N[C@@H](CCCNC(=N)N)C(=O)N1CCC[C@H]1C(=O)NCC(N)=O` [T, pGlu-His-Trp-Ser-Tyr-D-Trp-Leu-Arg-Pro-Gly-NH2], the “Duration of LH surge” value in assay [1] (setting [3]) is recorded as 19 ± 2; in assay [1] (setting [4]), 18; in assay [1] (setting [5]) it was 17 ± 4. In addition, the “Magnitude of LH surge” value amounted to 3.94 ± 1.22 in assay [1] (setting [3]), 8.98 in assay [1] (setting [4]) and 11.65 ± 12.35 in assay [1] (setting [5]). Further, the “Onset of LH surge” value in assay [1] (setting [3]) was 4 ± 3; in assay [1] (setting [4]), 0.5; in assay [1] (setting [5]), 4 ± 4. Further, the “Time of maximum LH conc.” value was 11 ± 7 in assay [1] (setting [3]), 4 in assay [1] (setting [4]) and 12 ± 4 in assay [1] (setting [5]). The figures for the “Gilts, which displayed a LH surge” value in assay [1] (100 mcg T in gel at 120 h post-MATRIX (n = 6 catheterized gilts)), in assay [1] (200 mcg T in gel at 120 h post-MATRIX (n = 7 catheterized gilts)) and in assay [1] (400 mcg T in gel at 120 h post-MATRIX (n = 6 catheterized gilts)) were 4, 1 and 5, respectively. In addition, the “% of Sows Ovulating” value in assay [2] (128 h post-MATRIX, 8 h post-T) is on record as 0.0%; in assay [2] (136 h post-MATRIX, 16 h post-T), 10.0%; in assay [2] (144 h post-MATRIX, 24 h post-T), 30.0%; in assay [2] (152 h post-MATRIX, 32 h post-T), 70.0%; in assay [2] (160 h post-MATRIX, 40 h post-T), 80.0%; in assay [2] (168 h post-MATRIX, 48 h post-T) it was 90.0%. Also, the “% of Sows Ovulating” value in assay [2] (176 h post-MATRIX, 56 h post-T) amounted to 100.0%. Also, in assay [2] (200 mcg T at 120 h after MATRIX withdrawal), the “Interval from MATRIX Withdrawal to Ovulation” value is given as 153.6.
